Laboratory results reported in publication PMC10247507 (Journal of immunology (Baltimore, Md. : 1950), 2023).

Tested on: naïve FluNP CD4 T cells
Assay: Activation of naïve FluNP CD4 T cells by peptide-pulsed BMDC in vitro
Type: cell-based, mouse
Conditions: CD69, CD25, Nur77 assays, 2d in vitro

NP311–325: immunodominant, highly conserved IAV nucleoprotein (NP) epitope presented by I-A^b; parent peptide of the panel (QVYSLIRPNENPAHK)
dose for peak responses, lower than the middle peptides (A7, K5): 100 fold
